The record followed here is patent US20030176454A1, “N-coating heterocyclic compounds” (priority 2000, published 2003).

With `I.N=C(Nc1cccc(Nc2nnc3c4c(cccc24)-c2ccccc2-3)c1)c1ccccc1`, the melting point lay within 183 to 186 °C.

Regarding `CS(=O)(=O)O.N=C(Nc1cccc(Nc2noc3ccccc23)c1)c1ccccc1` [Example 25, N-[3-(benzo[d]isoxazol-3-ylamino)phenyl]benzamidine methanesulfonate], the melting point fell in the range of 113 to 115 °C.

With `Cn1cncc1-c1cccc(Nc2ccc3ccccc3n2)c1` [Example 34, [3-(1-methyl-imidazol-5-yl)-phenyl]-(quinolin-2-yl)-amine], the melting point lay in the range of 60 to 65 °C.

Take `Cn1cncc1-c1cccc(Nc2nccc3ccccc23)c1` [Example 35, [3-(1-methyl-imidazol-5-yl)-phenyl]-(isoquinolin-1-yl)-amine]: the melting point lay within 208 to 209 °C.

For `c1ccc(Cc2nnc(Nc3cccc(-n4ccnc4)c3)c3ccccc23)cc1` [Example 36, (4-Benzyl-phthalazin-1-yl)-(3-imidazol-1-yl-phenyl)-amine], the melting point fell in the range of 214 to 217 °C.

Turning to `c1ccc2c(NCCCCNc3nccc4ccccc34)nccc2c1` [Example 37, N,N′-Di(isoquinolin-1-yl)-butane-1,4-diamine], the melting point is 189 to 192 °C.

On to `c1ccc2c(N[C@H]3CC[C@H](Nc4nccc5ccccc45)CC3)nccc2c1` [Example 38, N,N′-Di(isoquinolin-1-yl)-transcyclohexane-1,4-diamine], for which the melting point was in the range of 278 to 280 °C.

For the compound `c1cc(Nc2nnc3c4c(cccc24)-c2ccccc2-3)cc(-n2ccnc2)c1` [Example 39, (Indeno[1,2,3-de]phthalazin-3-yl)-[3-(imidazol-1-yl)-phenyl]-amine], the melting point was in the range of 223 to 226 °C.

`c1cc(CNc2nccc3ccccc23)cc(Nc2nnc3c4c(cccc24)-c2ccccc2-3)c1` [Example 40, (Indeno[1,2,3-de]phthalazin-3-yl)-[3-(isoquinolin-1-ylaminomethyl)-phenyl]-amine] displayed a melting point of 149 to 152 °C.

With `c1cc(Nc2nccc3ccccc23)cc(-n2ccnc2)c1` [Example 44, [3-(Imidazol-1-yl)-phenyl]-(isoquinolin-1-yl)-amine], the melting point fell in the range of 164 to 167 °C.

Consider `c1cc(Nc2nncc3ccccc23)cc(-n2ccnc2)c1` [Example 45, [3-(Imidazol-1-yl)-phenyl]-(phthalazin-1-yl)-amine], for which the melting point was 135 to 137 °C.

As for `c1ccc2c(c1)-c1cccc3c(NCCCCNc4nccc5ccccc45)nnc-2c13` [Example 46, N-(Indeno[1,2,3-de]phthalazin-3-yl)-N′-(isoquinolin-1-yl)-butane-1,4-diamine], the melting point was 95 to 105 °C.

`Cc1ncc(-c2cccc(Nc3ncnc4c3CCOc3ccccc3-4)c2)n1C` [Example 86, N-[3-(1,2-dimethyl-1H-imidazol-5-yl)phenyl]-5,6-dihydro[1]benzoxepino[5,4-d]pyrimidin-4-amine] came in with a melting point of 235 to 237 °C.

As to `c1cc(Nc2ccc(-n3cccc3)cn2)cc(-n2ccnc2)c1` [Example 87, N-[3-(imidazol-1-yl)phenyl]-N-[5-(pyrrol-1-yl)pyridin-2-yl]-amine], the melting point fell in the range of 152 to 156 °C.

As a reminder, the melting point is the temperature, or range, at which the solid turns liquid.
